PubChem BioAssay (NCI)
Several values for one entry are separate records, joined by “and”; a condition that tells them apart may be missing. Equal entries are not always repeated.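 These data come from cells grown in 96-well plates and exposed to compound for 48 hours at five concentrations. At the GI50, growth is halved. At the TGI there is no net growth.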

Key:
Test in all cases: NCI tumour cell line growth inhibition, 48 h
[1] = test system: SF-295 CNS
[2] = test system: A549 NSCLC
[3] = test system: UACC-257 melanoma
[4] = test system: OVCAR-3 ovarian
[5] = test system: SN12C renal
[6] = test system: IGROV1 ovarian
[7] = test system: NCI-H522 lung
[8] = test system: COLO 205 colon
[9] = test system: SF-268 CNS
[10] = test system: T-47D breast

SMILES | TGI [1] | TGI [2] | TGI [3] | TGI [4] | TGI [5] | TGI [6] | TGI [7] | TGI [8] | TGI [9] | GI50 [1] [µM] | GI50 [2] [µM] | GI50 [3] [µM] | GI50 [4] [µM] | GI50 [5] [µM] | GI50 [6] [µM] | GI50 [7] [µM] | GI50 [8] [µM] | GI50 [9] [µM] | TGI [10] [µM] | GI50 [10] [µM]
CCCN(CCC)c1c([N+](=O)[O-])cc(C(N)=O)cc1[N+](=O)[O-] | > 100 µM | > 100 µM | > 100 µM | > 100 µM | > 100 µM | > 100 µM | 67.3 µM | > 100 µM | > 100 µM | – | – | – | – | – | – | – | – | – | – | –
CC(C(=O)C(C)O[Si](c1ccccc1)(c1ccccc1)C(C)(C)C)=P(c1ccccc1)(c1ccccc1)c1ccccc1 (stereo not given) | 10.3 µM | 13.3 µM | 13.5 µM | 9.38 µM | 13.5 µM | 13.9 µM | – | 3.45 µM | – | – | – | – | – | – | – | – | – | – | – | –
O=C1CCC(=O)C(C(=O)CCC(=O)Nc2ccc(Cl)cc2)C1 (stereo not given) | > 100 µM | > 100 µM | > 100 µM | > 100 µM | > 100 µM | > 100 µM | > 100 µM | > 100 µM | > 100 µM | – | – | – | – | – | – | – | – | – | – | –
COC(=O)C([O][Ge]([CH3])([CH3])[CH3])c1ccccc1 (stereo not given) | > 100 µM | > 100 µM | > 100 µM | > 100 µM | > 100 µM | > 100 µM | > 100 µM | > 100 µM | > 100 µM | > 100 | > 100 | > 100 | > 100 | > 100 | > 100 | > 100 | > 100 | > 100 | – | –
COc1ccccc1NC(=O)NS(=O)(=O)c1ccccc1 | > 100 µM | > 100 µM | > 100 µM | – | > 100 µM | – | > 100 µM | > 100 µM | > 100 µM | – | – | – | – | – | – | – | – | – | – | –
CC1CCCc2c(CC3CC(=O)NC(=O)C3)nc(N)nc21 (stereo not given) | > 100 µM | > 100 µM | > 100 µM | > 100 µM | > 100 µM | > 100 µM | – | > 100 µM | > 100 µM | – | – | – | – | – | – | – | – | – | > 100 | –
COc1ccc2nc(NC(=O)C(=O)C(C#N)c3ccc(CC#N)cc3)sc2c1 (stereo not given) | > 100 µM | > 100 µM | > 100 µM | > 100 µM | > 100 µM | > 100 µM | > 100 µM | > 100 µM | > 100 µM | – | – | – | – | – | – | – | – | – | – | –
C=CCN1C(=O)C/C(=C2/CCC(=O)N2CC=C)C1=O | > 100 µM | > 100 µM | > 100 µM | > 100 µM | > 100 µM | > 100 µM | > 100 µM | > 100 µM | > 100 µM | – | – | – | – | – | – | – | – | – | – | –
O=C1/C(=C/c2ccc(Cl)cc2)COc2ccc(Br)cc21 | > 100 µM | > 100 µM | > 100 µM | > 100 µM | – | > 100 µM | > 100 µM | > 100 µM | > 100 µM | – | – | – | – | – | – | – | – | – | – | –
c1cc[c]([Sn]([O]c2cccc3cccnc23)([c]2ccccc2)[c]2ccccc2)cc1 | 0.0761 µM | 0.0427 µM | 0.117 µM | 0.0337 µM | 0.0293 µM | 0.0428 µM | – | 0.0302 µM | 0.0275 µM | 0.0306 | 0.0184 | 0.0334 | 0.0171 | 0.0151 | 0.0196 | < 0.01 | 0.0161 | 0.0128 | – | –
O=C1NC(=Nc2ccccc2Cl)SC1C(=O)Nc1ccc([N+](=O)[O-])cc1[N+](=O)[O-] (stereo not given) | > 100 µM | > 100 µM | > 100 µM | > 100 µM | > 100 µM | > 100 µM | > 100 µM | > 100 µM | > 100 µM | – | – | – | – | – | – | – | – | – | – | –
CN(C)/C=C/C(=O)c1cccc(C(=O)/C=C/N(C)C)n1 | > 100 µM | > 100 µM | > 100 µM | > 100 µM | > 100 µM | > 100 µM | > 100 µM | > 100 µM | > 100 µM | – | – | – | – | – | – | – | – | – | – | –
Cn1cc(C2=C(c3cn(C)c4cc(Cl)ccc34)C(=O)NC2=O)c2ccccc21 | > 25 µM | > 25 µM | > 25 µM | 0.154 µM | > 15.9 µM | > 13.2 µM | 0.345 µM | 0.18 µM | > 15.1 µM | 0.093 | 0.115 | 0.169 | 0.0653 | 0.145 | 0.24 | 0.0723 | 0.07 | 0.18 | – | –
CCN1CCN(c2nc(NNC(=O)c3cccc(OC)c3)nc(N3CCN(C(c4ccccc4)c4ccccc4)CC3)n2)CC1 | 3.6 µM | > 100 µM | 4.99 µM | 3.78 µM | 3.36 µM | 4.34 µM | – | 5.55 µM | 4.2 µM | 1.87 | 3.05 | 2.18 | 1.94 | 1.62 | 1.89 | – | 2.22 | 1.95 | 7.18 | 2.27
CCCCCCCC(=O)O[C@H]1[C@H]2[C@@H](CC1(C)C)C(=O)[C@]13O[C@H]1C(=O)[C@]1(CO1)[C@]23C | 43.7 µM and 36.5 µM | 38.2 µM and 63.6 µM | 10.8 µM and 7.04 µM | 4.55 µM and 6.02 µM | 12.6 µM and 9.31 µM | 36.6 µM and 11.4 µM | 2.9 µM and 3.85 µM | 5.18 µM and 4.07 µM | 23.1 µM and 16.2 µM | 20.2 | 22.5 | 5.03 | 2.37 | – | 20.9 | – | 2.17 | 8.17 | – | –
CC1CC(=O)CC[C@@H]1OCc1ccccc1 (stereo not given in full) | > 100 µM | > 100 µM | > 100 µM | > 100 µM | > 100 µM | > 100 µM | – | > 100 µM | > 100 µM | – | – | – | – | – | – | – | – | – | – | –
Cc1nc(=O)n2c(c1C(=O)Nc1ccc(Cl)cc1)NCCC2 | > 100 µM | > 100 µM | – | > 100 µM | > 100 µM | > 100 µM | > 100 µM | > 100 µM | > 100 µM | – | – | – | – | – | – | – | – | – | – | –
CC(=O)OC1CC2C(C)(C)C(=O)C=C[C@]2(C)C2CCC3(C)C(=CCC3[C@H](CO)C[C@H](O)C(=O)C(C)(C)O)[C@]12C (stereo not given in full) | 27.7 µM | 79.3 µM | 30.8 µM | 35.4 µM | 75.9 µM | 49.1 µM | 52.3 µM | > 100 µM | 82.2 µM | – | – | – | – | – | – | – | – | – | – | –
COc1cccc(C2N3CCCCC3[C@@H]3c4[nH]c5ccccc5c4CCN23)c1OC (stereo not given in full) | 31.6 µM | 29.9 µM | 30.1 µM | 25.9 µM | 31 µM | 34.7 µM | – | 29.2 µM | 23.7 µM | – | – | – | – | – | – | – | – | – | – | –
